Source: patent US4916065A (priority 1988, dated 1990)
In brackets after ≈: the same amount, converted by molar mass. Read-outs that look alike come from different tables or passages of the source.

Assays:
[1] = system: Petriellidium boydii IF08073; assay: Antifungal MIC, Sabouraud dextrose agar; type: cell-based; details: Scedosporium boydii
[2] = system: Aspergillus flavus FA21436; assay: Antifungal MIC, Sabouraud dextrose agar; type: cell-based
[3] = system: Cryptococcus neoformans IAM4514; assay: Antifungal MIC, Sabouraud dextrose agar; type: cell-based
[4] = system: Fusarium moniliforme A2284; assay: Antifungal MIC, Sabouraud dextrose agar; type: cell-based; details: Fusarium verticillioides
[5] = system: Cryptococcus neoformans D49; assay: Antifungal MIC, Sabouraud dextrose agar; type: cell-based
[6] = system: Mucor spinosus IF05317; assay: Antifungal MIC, Sabouraud dextrose agar; type: cell-based
[7] = system: Piricularia oryzae D91; assay: microbe, parasite or virus in culture; type: cell-based
[8] = system: Trichophyton mentagrophytes #4329; assay: Antifungal MIC, Sabouraud dextrose agar; type: cell-based
[9] = system: Escherichia coli A20665; assay: Antibacterial MIC, serial agar dilution; type: cell-based; details: aerobic, nutrient agar, kanamycin-resistant
[10] = system: P388; assay: In vitro cytotoxicity; type: cell-based, murine; details: Mus musculus, 72 hours, viable cell count
Procedure: (§1) On the other hand, the cytotoxic activities against P388 and P388/VCR cells were determined by counting the number of viable cells.

[11] = system: Micrococcus luteus 1001; assay: Antibacterial MIC, serial agar dilution; type: cell-based; details: aerobic, nutrient agar
[12] = system: P388 leukemia; assay: Antitumor activity against P388 leukemia (ip); type: in vivo, mice; details: for Body weight change on day 4 / MST (median survival time) / T/C: QD × 3, ip
[13] = system: Staphylococcus epidermidis A22152; assay: Antibacterial MIC, serial agar dilution; type: cell-based; details: aerobic, nutrient agar, kanamycin-resistant
[14] = system: Enterococcus faecalis A9612; assay: Antibacterial MIC, serial agar dilution; type: cell-based; details: aerobic, nutrient agar
[15] = system: B16-F10; assay: In vitro cytotoxicity; type: cell-based, murine; details: Mus musculus, 72 hours, neutral red, 540 nm
[16] = system: Escherichia coli A9624; assay: Antibacterial MIC, serial agar dilution; type: cell-based; details: aerobic, nutrient agar, kanamycin-resistant
[17] = system: HCT-116; assay: In vitro cytotoxicity; type: cell-based; details: Homo sapiens, 72 hours, neutral red, 540 nm
[18] = system: Staphylococcus aureus 209P; assay: Antibacterial MIC, serial agar dilution; type: cell-based; details: aerobic, nutrient agar
[19] = system: Moser; assay: In vitro cytotoxicity; type: cell-based; details: Homo sapiens; 72 hours, neutral red, 540 nm
[20] = system: P388/VCR; assay: In vitro cytotoxicity
Procedure: as §1

[21] = system: DNA synthesis in L1210 cells; assay: Inhibition of macromolecule synthesis in L1210 leukemia; type: cell-based; details: Mus musculus; 3H-thymidine, L1210, 15 min + 60 min, 37° C.
[22] = system: Escherichia coli Juhl; assay: Antibacterial MIC, serial agar dilution; type: cell-based; details: aerobic, nutrient agar
[23] = system: Protein synthesis in L1210 cells; assay: Inhibition of macromolecule synthesis in L1210 leukemia; type: cell-based; details: Mus musculus; 3H-leucine, L1210, 15 min + 60 min, 37° C.
[24] = system: Trichophyton mentagrophytes D155; assay: Antifungal MIC, Sabouraud dextrose agar; type: cell-based
[25] = system: Propionibacterium acnes A21933; assay: Antibacterial MIC, serial agar dilution; type: cell-based; details: Cutibacterium acnes, anaerobic, GAM agar
[26] = system: Canidia albicans IAM4888; assay: Antifungal MIC, Sabouraud dextrose agar; type: cell-based
[27] = Solubility; type: physicochemical
[28] = system: Staphylococcus aureus Smith; type: in vivo, mice; details: single, im; for No. of survivor/tested: 5 days
Procedure: Mice were challenged intraperitoneally with 100 times the lethal dose of the pathogen in a 5% suspension of hog gastric mucin (American laboratory, Omaha, Nebr.). BU-3420T was administered to mice intramuscularly just before the bacterial challenge.

[29] = system: Enterobacter cloacae A9659; assay: Antibacterial MIC, serial agar dilution; type: cell-based; details: aerobic, nutrient agar
[30] = system: RNA synthesis in L1210 cells; assay: Inhibition of macromolecule synthesis in L1210 leukemia; type: cell-based; details: Mus musculus; 14C-uridine, L1210, 15 min + 60 min, 37° C.
[31] = system: Proteus mirabilis A9554; assay: Antibacterial MIC, serial agar dilution; type: cell-based; details: aerobic, nutrient agar
[32] = system: aerobic and anaerobic bacteria; type: cell-based
[33] = system: Escherichia coli NIHJ; assay: Antibacterial MIC, serial agar dilution; type: cell-based; details: aerobic, nutrient agar

C[C@@H]1[C@H](O)[C@@H](C)/C=C/C=C/C=C/C=C/C=C/C=C/C=C/[C@H](O[C@@H]2O[C@H](C)[C@@H](O)[C@H](N)[C@@H]2O)C[C@@H]2O[C@](O)(C[C@@H](O)C[C@@H](O)[C@H](O)CC[C@@H](O)C[C@@H](O)CC(=O)O[C@H]1C)C[C@H](O)[C@H]2C(=O)O [Amphotericin B, reference compound]
MIC [1]: > 100000 ng/mL
MIC [2]: 3100 ng/mL (≈ 3350 nM)
MIC [3]: < 200 ng/mL
MIC [4]: 12500 ng/mL (≈ 13500 nM)
MIC [5]: < 200 ng/mL
MIC [6]: 800 ng/mL (≈ 866 nM)
MIC [7]: 3100 ng/mL (≈ 3350 nM)
MIC [8]: 3100 ng/mL (≈ 3350 nM)

COC1=C(C(=O)O)C(C)C23OC24c2cc(O)c5c(c2NC3C#C/C=C\C#CC14)C(=O)c1c(O)ccc(O)c1C5=O (stereo not drawn) [BU-3420T]
MIC [9]: 50 ng/mL (≈ 93 nM)
IC50 [10]: 0.4 ng/mL (≈ 0.744 nM)
MIC [11]: 0.8 ng/mL (≈ 1.49 nM)
Body weight change on day 4 ([12]; 0.5 mg/kg/day): 0.0 g
MST (median survival time) ([12]; 0.5 mg/kg/day): 13.0 days
T/C ([12]; 0.5 mg/kg/day): 130%
Body weight change on day 4 ([12]; 1.0 mg/kg/day): -0.5 g
MST (median survival time) ([12]; 1.0 mg/kg/day): 13.5 days
T/C ([12]; 1.0 mg/kg/day): 135%
maximum T/C value ([12]; P388, ip, QD × 3): 135%
MIC [13]: 0.05 ng/mL (≈ 0.093 nM)
MIC [14]: 0.4 ng/mL (≈ 0.744 nM)
IC50 [15]: 5.2 ng/mL (≈ 9.67 nM)
MIC [16]: 50 ng/mL (≈ 93 nM)
IC50 [17]: 0.42 ng/mL (≈ 0.781 nM)
MIC [18]: 0.013 ng/mL (≈ 0.0242 nM)
IC50 [19]: 0.85 ng/mL (≈ 1.58 nM)
IC50 ([20]; Mus musculus, P388/VCR, 72 h): 0.4 ng/mL (≈ 0.744 nM)
cytotoxicity against VCR-sensitive versus resistant P388 cells ([20]; P388 versus P388/VCR): same cytotoxicities against both VCR-sensitive and resistant P388 cells
IC50 [21]: 18 ng/mL
MIC [3]: 12500 ng/mL (≈ 23300 nM)
MIC [22]: 50 ng/mL (≈ 93 nM)
IC50 [23]: 1500 ng/mL
MIC [24]: 12500 ng/mL (≈ 23300 nM)
MIC [25]: 13 ng/mL (≈ 24.2 nM)
MIC [26]: 12500 ng/mL (≈ 23300 nM)
solubility ([27]; chloroform, ethyl acetate, methanol and ethanol): slightly soluble
solubility ([27]; dimethyl sulfoxide, dimethylformamide and dioxane): soluble
solubility ([27]; water and n-hexane): insoluble
No. of survivor/tested ([28]; 0.01 mg/kg): 0/5
No. of survivor/tested ([28]; 0.04 mg/kg): 0/5
ED50 ([28]; Staphylococcus aureus, 120 h, just before challenge, 5 days observation, read-out: PD50 (median protective dose)): 0.13 mg/kg
MIC [5]: 12500 ng/mL (≈ 23300 nM)
MIC [29]: 50 ng/mL (≈ 93 nM)
MIC [6]: 12500 ng/mL (≈ 23300 nM)
IC50 [30]: 9200 ng/mL
MIC [31]: 13 ng/mL (≈ 24.2 nM)
MIC [8]: 12500 ng/mL (≈ 23300 nM)
activity against Gram-negative organisms ([32]; Gram-negative organisms, versus Gram-positive): a little less susceptible
activity against Gram-positive aerobic bacteria ([32]; Gram-positive aerobic bacteria): intensely potent activity
activity against anaerobic Gram-positive and negative bacteria versus clindamycin ([32]; anaerobic bacteria): much more active than clindamycin
activity against certain kanamycin- and clindamycin-resistant bacteria ([32]; kanamycin- and clindamycin-resistant bacteria): susceptible to both compounds
MIC [33]: 50 ng/mL (≈ 93 nM)
